We go through three compounds from patent US5153194A, “Thienocycloheptapyridazine compounds and their pharmaceutical use” (Yoshitomi Pharmaceutical Industries, Ltd., priority 1988, dated 1992).

For data set [1], the system named is tonic convulsion induced by (+) bicuculline. The experiment in a line: Anti-bicuculline action (bicuculline-induced tonic convulsion). It is filed as in vivo, mouse (male ddY). The settings on record: Mus musculus; oral, 1 hour before (+) bicuculline 0.6 mg/kg i.v.; tonic convulsion within 5 minutes. How it is done: The anti-bicuculline action test was carried out in accordance with the method described in Life Science, vol. 21, 1779 (1977).
Male ddY mice weighing 20-28 g, 7-14 animals per group, were used. One hour after the oral administration of the test compounds, (+) bicuculline was intravenously administered at the dosage of 0.6 mg/kg, and 50% effective concentration (ED50) was estimated by examining whether tonic convulsion within 5 minutes was caused or not.

For data set [2], the target named is benzodiazepine (BZP) receptors. The experiment in a line: Displacement ability for benzodiazepine (displacement of tritiated diazepam). The settings on record: displacement of tritiated diazepam (2 nM), rat cerebral cortex synaptosomes, 0° C., 20 minutes, pH 7.4; read-out: Affinity to BZP Receptors, Ki. It is filed as binding, rat (male Wistar. As for the experimental part:
The experiment for specific affinity to benzodiazepine receptors was carried out in accordance with the method described in Life Science, vol. 20, 2101 (1977).
The crude cynaptosome fraction was isolated from the cerebral cortex of male Wistar rats aged 9-10 weeks, and was suspended in 50 mM Tris-hydrochloric acid buffer solution (pH 7.4) containing 120 mM sodium chloride and 5 mM potassium chloride. These suspensions were used for the experiment.
The test compounds in several different concentrations and tritiated diazepam (in final concentration of 2 nM) were added to the synaptosome suspensions, and the mixtures were incubated at 0° C. for 20 minutes. These suspensions were filtered with Whatman GF/B glassfiber filters. After the filters were washed with the above-mentioned buffer solution, the radioactivity left on the filters was measured with the use of a liquid scintillation counter.
Specific binding was determined by subtracting binding in the presence of 10^-6 M unlabelled diazepam from total binding.
According to the foregoing experimental method, the binding force to benzodiazepine receptors of the compound of the present invention is evaluated from its displacement ability for tritiated diazepam at its binding site, which is represented by Ki value (nM).

The subject of data set [3] is amnesia-induced mice (electroconvulsive shock). The experiment in a line: Action on experimental amnesia (ECS-induced amnesia, step-through passive avoidance). It is filed as in vivo, mouse (male ddY). Particulars: 2.5 mg/kg (i.p.) or more, 30 minutes before acquisition trial; retention test 24 hours after. How it is done:
Twenty male ddY mice were used per group to investigate the action of the test compounds on learning and memory ability of amnesia-induced mice by observing a step-through passive avoidance reflex. Amnesia-induced animals were prepared by applying electroconvulsive shock (ECS) soon after the acquisition trial and the retention test was carried out 24 hours after the acquisition trial. Test compounds were administered intraperitoneally (i.p.) 30 minutes before the acquisition trial.

The subject of data set [4] is ddY mice. The data set can be described thus: Acute toxicity. It is filed as in vivo, mouse (male ddY). The settings on record: 5 days. The source says: Five male ddY mice were used per group.

pKi: −log10 of the molar value.

The ED50 is the dose that gives a 50% effect, or the effect in half of the subjects. In general, pKi refers to the Ki on a negative log10 scale, so that one unit is a factor of ten. Turning to `Cc1cc2c(s1)CCCC1CC(=O)N(c3ccc(Cl)cc3)N=C21` (stereo not shown) [Example 1, 2-(4-chlorophenyl)-9-methyl-2,4,4a,5,6,7-hexahydro-3H-thieno[2',3':6,7]cyclohepta[1,2-c]pyridazin-3-one], in data set [1], the ED50 was 8.1 mg/kg. In data set [2], the pKi was 8.32.

`COc1ccc(N2N=C3c4cc(C)sc4CCCC3CC2=O)cc1` (stereo not shown) [Example 4, 2-(4-methoxyphenyl)-9-methyl-2,4,4a,5,6,7-hexahydro-3H-thieno[2',3':6,7]cyclohepta[1,2-c]pyridazin-3-one]: in data set [3], the “latency time in the trial of the retention test” value is listed as “significantly prolonged the latency time”. Also, in data set [4] (300 mg/kg i.p., five mice), the “survival, acute toxicity, intraperitoneal” value is on record as “all mice survived for 5 days”. For the same compound, the “survival, acute toxicity, oral” value in data set [4] (1000 mg/kg oral) is “survived for 5 days”. In data set [2], the pKi was 8.96.

In data set [1], `Cc1cc2c(s1)CCCc1cc(=O)n(-c3ccc(Cl)cc3)nc1-2` [Example 5, 2-(4-chlorophenyl)-2,5,6,7-tetrahydro-9-methyl-3H-thieno[2',3':6,7]cyclohepta[1,2-c]pyridazin-3-one] returned an ED50 of 9.8 mg/kg.
